Values quoted from earlier work as cited in PubChem BioAssay AID1259409 (Chemical Carcinogenesis Research Information System (CCRIS), 2018).

Tested on: rodent chemically induced tumor inhibition, incidence and multiplicity
Test: CCRIS tumor inhibitor studies
Settings: Promoter: NONE USED

## CCCCCCCCCCCCCCCC(=O)OC/C=C(C)/C=C/C=C(C)/C=C/C1=C(C)CCCC1(C)C
Carcinogen: 3-METHYLCHOLANTHRENE, 56-49-5, Dose [Inhibitor]: 6 MG IN 0.1 ML ACETONE STARTING 2 WK AFTER CARCINOGEN TREATMENT AND APPLIED 2/WK DURING WK 3-5 OF THE STUDY AND THEN 1/W, Route [Inhibitor]: DERMAL, Species: MOUSE, Strain/Sex: SWISS/FEMALE, Target Tissue: Type of Lesion: SKIN: CARCINOMA, Dose [Carcinogen]: 0.1 ML OF 0.3% DISSOLVED IN ACETONE APPLIED 2/WK FIRST 5 WK THEN 1/WK FOR WK 6-9 FOLLOWED BY NO FURTHER TREATMENT THROUG
  tumour outcome (control, treated, inhibition, significance): 5/19 (26%), 4/20 (20%), 23%, not calculated
Carcinogen: 3-METHYLCHOLANTHRENE, 56-49-5, Dose [Inhibitor]: 6 MG IN 0.1 ML ACETONE STARTING 2 WK AFTER CARCINOGEN TREATMENT AND APPLIED 2/WK DURING WK 3-5 OF THE STUDY AND THEN 1/W, Route [Inhibitor]: DERMAL, Species: MOUSE, Strain/Sex: SWISS/FEMALE, Target Tissue: Type of Lesion: SKIN: PAPILLOMA, Dose [Carcinogen]: 0.1 ML OF 0.3% DISSOLVED IN ACETONE APPLIED 2/WK FIRST 5 WK THEN 1/WK FOR WK 6-9 FOLLOWED BY NO FURTHER TREATMENT THROUG
  tumour outcome (control, treated, inhibition, significance): 9/19 (47%), 3/20 (15%), 68%, not calculated
Carcinogen: 7,12-DIMETHYLBENZ[A]ANTHRACENE, 57-97-6, Dose [Inhibitor]: 0, 5000 IU APPLIED TO EACH CHEEK POUCH 2/WK BEGINNING 15 D POST LAST CARCINOGEN DOSE AND CONTINUING FOR 4.5 MO (STUDY DU, Route [Inhibitor]: DERMAL, Species: HAMSTER, Strain/Sex: SYRIAN/MALE, Target Tissue: Type of Lesion: CHEEK POUCH: TUMOR, Dose [Carcinogen]: 0.125 MG (0.25% LIQUID PARAFFIN SOLUTION) APPLIED TO EACH CHEEK POUCH 2/WK FOR 1 MO
  tumour outcome (control, treated, inhibition, significance): 10/15 (67%), 0/20 (0%), 100%, not calculated
Carcinogen: 7,12-DIMETHYLBENZ[A]ANTHRACENE, 57-97-6, Dose [Inhibitor]: 0, 5000 IU APPLIED TO EACH CHEEK POUCH 2/WK BEGINNING 15 D POST LAST CARCINOGEN DOSE AND CONTINUING FOR 4.5 MO (STUDY DU, Route [Inhibitor]: DERMAL, Species: HAMSTER, Strain/Sex: SYRIAN/MALE, Target Tissue: Type of Lesion: STOMACH: TUMOR, Dose [Carcinogen]: 0.125 MG (0.25% LIQUID PARAFFIN SOLUTION) APPLIED TO EACH CHEEK POUCH 2/WK FOR 1 MO
  tumour outcome (control, treated, inhibition, significance): 15/15 (100%), 0/20 (0%), 100%, not calculated
Carcinogen: 7,12-DIMETHYLBENZ[A]ANTHRACENE, 57-97-6, Dose [Inhibitor]: 20000 IU/KG IN DIET BEGINNING 6 WK PRIOR TO CARCINOGEN DOSE AND CONTINUING FOR 21-22 WK POST CARCINOGEN DOSE (STUDY DURA, Route [Inhibitor]: ORAL, Species: RAT, Strain/Sex: SPRAGUE-DAWLEY/MALE, Target Tissue: Type of Lesion: SALIVARY GLAND: TUMOR, Dose [Carcinogen]: 1 MG IN 20 µL OLIVE OIL INJECTED INTO SUBMANDIBULAR GLAND ONCE
  tumour outcome (control, treated, inhibition, significance): 20/28 (71%), 16/29 (55%), 23%, not significant
Carcinogen: 7,12-DIMETHYLBENZ[A]ANTHRACENE, 57-97-6, Dose [Inhibitor]: 100000 IU/KG IN DIET BEGINNING 6 WK PRIOR TO CARCINOGEN DOSE AND CONTINUING FOR 21-22 WK POST CARCINOGEN DOSE (STUDY DUR, Route [Inhibitor]: ORAL, Species: RAT, Strain/Sex: SPRAGUE-DAWLEY/MALE, Target Tissue: Type of Lesion: SALIVARY GLAND: TUMOR, Dose [Carcinogen]: 1 MG IN 20 µL OLIVE OIL INJECTED INTO SUBMANDIBULAR GLAND ONCE
  tumour outcome (control, treated, inhibition, significance): 20/28 (71%), 17/29 (59%), 17%, not significant
Carcinogen: BENZO[A]PYRENE, 50-32-8, Dose [Inhibitor]: 50, 200 IU/D IN DRINKING WATER FOR 61 WK BEGINNING POST CARCINOGEN TREATMENT (STUDY DURATION: 66 WK), Route [Inhibitor]: ORAL, Species: MOUSE, Strain/Sex: ICR/MALE, Target Tissue: Type of Lesion: FORESTOMACH: CARCINOMA, Dose [Carcinogen]: 20 MG IN 0.2 ML CORN OIL 2/WK FOR 5 WK
  tumour outcome (control, treated, inhibition, significance): 8/28 (29%), 5/26 (19%), 34%, not significant
Carcinogen: BENZO[A]PYRENE, 50-32-8, Dose [Inhibitor]: 50, 200 IU/D IN DRINKING WATER FOR 61 WK BEGINNING POST CARCINOGEN TREATMENT (STUDY DURATION: 66 WK), Route [Inhibitor]: ORAL, Species: MOUSE, Strain/Sex: ICR/MALE, Target Tissue: Type of Lesion: FORESTOMACH: PAPILLOMA, Dose [Carcinogen]: 2 MG IN 0.2 ML CORN OIL 2/WK FOR 5 WK
  tumour outcome (control, treated, inhibition, significance): 8/28 (29%), 2/27 (7%), 76%, p<0.05
Carcinogen: BENZO[A]PYRENE, 50-32-8, Dose [Inhibitor]: 50, 200 IU/D IN DRINKING WATER FOR 61 WK BEGINNING POST CARCINOGEN TREATMENT (STUDY DURATION: 66 WK), Route [Inhibitor]: ORAL, Species: MOUSE, Strain/Sex: ORAL, Target Tissue: Type of Lesion: FORESTOMACH: PAPILLOMA, Dose [Carcinogen]: 20 MG IN O.2 ML CORN OIL 2/WK FOR 5 WK
  tumour outcome (control, treated, inhibition, significance): 26/28 (93%), 23/26 (88%), 5%, not significant
Carcinogen: BENZO[A]PYRENE, 50-32-8, Dose [Inhibitor]: 50, 200 IU/D IN DRINKING WATER FOR DURATION OF STUDY (STUDY DURATION: 66 WK), Route [Inhibitor]: ORAL, Species: MOUSE, Strain/Sex: ICR/MALE, Target Tissue: Type of Lesion: FORESTOMACH: PAPILLOMA, Dose [Carcinogen]: 2 MG IN 0.2 ML CORN OIL 2/WK FOR 5 WK
  tumour outcome (control, treated, inhibition, significance): 8/28 (29%), 2/27 (7%), 76%, p,0.05
Carcinogen: BENZO[A]PYRENE, 50-32-8, Dose [Inhibitor]: 50, 200 IU/D IN DRINKING WATER FOR THE DURATION OF STUDY (STUDY DURATION: 66 WK), Route [Inhibitor]: ORAL, Species: MOUSE, Strain/Sex: ICR/MALE, Target Tissue: Type of Lesion: FORESTOMACH: CARCINOMA, Dose [Carcinogen]: 20 MG IN 0.2 ML CORN OIL 2/WK FOR 5 WK
  tumour outcome (control, treated, inhibition, significance): 8/28 (29%), 7/27 (26%), 10%, not significant
Carcinogen: BENZO[A]PYRENE, 50-32-8, Dose [Inhibitor]: 50, 200 IU/D IN DRINKING WATER FOR THE DURATION OF STUDY (STUDY DURATION: 66 WK), Route [Inhibitor]: ORAL, Species: MOUSE, Strain/Sex: ICR/MALE, Target Tissue: Type of Lesion: FORESTOMACH: PAPILLOMA, Dose [Carcinogen]: 20 MG IN 0.2 ML CORN OIL 2/WK FOR 5 WK
  tumour outcome (control, treated, inhibition, significance): 26/28 (93%), 20/27 (74%), 19%, not significant
Carcinogen: FIBERGLASS DUST, Dose [Inhibitor]: 50 MG/KG BW IN AQUASOL A PLACEBO, 1/3 D FOR 10 TREATMENTS STARTING 3 D POST CARCINOGEN TREATMENT (STUDY DURATION: 90 D), Route [Inhibitor]: INTRAPERITONEAL, Species: MOUSE, Strain/Sex: STRAIN-A/MALE, Target Tissue: Type of Lesion: LUNG: BRONCHIOGENIC OR SEPTAL CELL TUMOR, Dose [Carcinogen]: 300 MG IN 100 G OF STERILIZED PINE SAWDUST BEDDING CHANGED 1/3 D FOR 30 D STARTING 33 D PRIOR TO START OF AGENT TREATMEN
  tumour outcome (control, treated, inhibition, significance): 6/12 (50%), 1/12 (8%), 84%, not calculated
Carcinogen: N-METHYL-N'-NITRO-N-NITROSOGUANIDINE, 70-25-7, Dose [Inhibitor]: 0, 150000 IU/KG DIET FOR 37 WK (STUDY DURATION: 38 WK), Route [Inhibitor]: ORAL, Species: RAT, Strain/Sex: WISTAR/MALE, Target Tissue: Type of Lesion: FORESTOMACH: BENIGN PAPILLOMA, Dose [Carcinogen]: 83 UG/ML IN DISTILLED DRINKING WATER FOR 37 WK
  tumour outcome (control, treated, inhibition, significance): 15/51 (29%), 3/28 (11%), 62%, p<0.05
Carcinogen: N-METHYL-N'-NITRO-N-NITROSOGUANIDINE, 70-25-7, Dose [Inhibitor]: 0, 150000 IU/KG DIET FOR 37 WK (STUDY DURATION: 38 WK), Route [Inhibitor]: ORAL, Species: RAT, Strain/Sex: WISTAR/MALE, Target Tissue: Type of Lesion: GASTROINTESTINAL TRACT (UPPER): MALIGNANT NEOPLASMS, Dose [Carcinogen]: 83 UG/ML IN DISTILLED DRINKING WATER FOR 37 WK
  tumour outcome (control, treated, inhibition, significance): 17/51 (33%), 18/28 (64%), -94%, p<0.05
Carcinogen: N-METHYL-N-NITROSOUREA, 684-93-5, Dose [Inhibitor]: 0.03 MMOL 3/WK STARTING 12 D THROUGH ABOUT 8 MO AFTER FIRST CARCINOGEN DOSE (STUDY DURATION: APPROXIMATELY 8 MO), Route [Inhibitor]: INTRARECTAL, Species: RAT, Strain/Sex: F344/MALE, Target Tissue: Type of Lesion: COLON: ADENOCARCINOMA, Dose [Carcinogen]: 2.5 MG 1/WK FOR 2 WK
  tumour outcome (control, treated, inhibition, significance): 3/39 (8%), 4/39 (10%), -25%, not significant
Carcinogen: N-METHYL-N-NITROSOUREA, 684-93-5, Dose [Inhibitor]: 0.03 MMOL 3/WK STARTING 12 D THROUGH ABOUT 8 MO AFTER FIRST CARCINOGEN DOSE (STUDY DURATION: APPROXIMATELY 8 MO), Route [Inhibitor]: INTRARECTAL, Species: RAT, Strain/Sex: F344/MALE, Target Tissue: Type of Lesion: COLON: ADENOMA, Dose [Carcinogen]: 2.5 MG 1/WK FOR 2 WK
  tumour outcome (control, treated, inhibition, significance): 11/39 (28%), 24/39 (62%), -121%, p<0.05
Carcinogen: N-METHYL-N-NITROSOUREA, 684-93-5, Dose [Inhibitor]: 0.03 MMOL 3/WK STARTING 15 D PRIOR TO THROUGH ABOUT 8 MO AFTER FIRST CARCINOGEN DOSE (STUDY DURATION: APPROXIMATELY 8 MO, Route [Inhibitor]: INTRARECTAL, Species: RAT, Strain/Sex: F344/MALE, Target Tissue: Type of Lesion: COLON: ADENOCARCINOMA, Dose [Carcinogen]: 2.5 MG 1/WK FOR 2 WK
  tumour outcome (control, treated, inhibition, significance): 3/39 (8%), 10/38 (26%), -225%, not significant
Carcinogen: N-METHYL-N-NITROSOUREA, 684-93-5, Dose [Inhibitor]: 0.03 MMOL 3/WK STARTING 15 D PRIOR TO THROUGH ABOUT 8 MO AFTER FIRST CARCINOGEN DOSE (STUDY DURATION: APPROXIMATELY 8 MO, Route [Inhibitor]: INTRARECTAL, Species: RAT, Strain/Sex: F344/MALE, Target Tissue: Type of Lesion: COLON: ADENOMA, Dose [Carcinogen]: 2.5 MG 1/WK FOR 2 WK
  tumour outcome (control, treated, inhibition, significance): 11/39 (28%), 24/38 (63%), -125%, p<0.05
